Active and inactive are the calls of the source. The rule behind the calls is not given here.
Key:
[1] = system: HL-60; assay: Reduction in mitochondrial membrane potential in human HL60 cells at 10 uM after 24 hrs by Rh-123-staining based flow cytometry (reference value: 7%); format: functional; set-up: scale not given: the % may be the effect or the level left
[2] = system: MCF7; assay: Growth inhibition of human MCF7 cells after 72 hrs by MTT assay; format: functional, cell-based; conditions: MCF7, 72 h
[3] = system: SK-N-SH; assay: Growth inhibition of human SK-N-SH cells after 72 hrs by MTT assay; format: functional, cell-based
[4] = Cell cycle arrest in human HL60 cells assessed as accumulation at G2 phase at 20 uM after 24 hrs by propidium iodide-staining based flow cytometry (reference value: […]); format: functional; conditions: HL-60
[5] = Growth inhibition of human MIAPaCa2 cells at 50 uM after 72 hrs by MTT assay; format: functional; conditions: MIA PaCa-2, 72 h, read-out: GI
[6] = Cell cycle arrest in human HL60 cells assessed as apoptotic cells at 20 uM after 24 hrs by propidium iodide-staining based flow cytometry (reference value: 3%); format: functional; conditions: HL-60
[7] = Cell cycle arrest in human HL60 cells assessed as apoptotic cells at 10 uM after 24 hrs by propidium iodide-staining based flow cytometry (reference value: 3%); format: functional; conditions: HL-60
[8] = Cell cycle arrest in human HL60 cells assessed as apoptotic cells at 15 uM after 24 hrs by propidium iodide-staining based flow cytometry (reference value: 3%); format: functional; conditions: HL-60
[9] = Cell cycle arrest in human HL60 cells assessed as accumulation at S phase at 5 uM after 24 hrs by propidium iodide-staining based flow cytometry (reference value: 63%); format: functional; conditions: HL-60
[10] = system: HepG2; assay: Growth inhibition of human HepG2 cells at 50 uM after 72 hrs by MTT assay; format: functional; conditions: HepG2, 72 h, read-out: GI
[11] = system: SK-N-SH; assay: Growth inhibition of human SK-N-SH cells at 50 uM after 72 hrs by MTT assay; format: functional; conditions: read-out: GI
[12] = system: MCF7; assay: Growth inhibition of human MCF7 cells at 30 uM after 72 hrs by MTT assay; format: functional; conditions: MCF7, 72 h, read-out: GI
[13] = Cell cycle arrest in human HL60 cells assessed as accumulation at G1 phase at 20 uM after 24 hrs by propidium iodide-staining based flow cytometry (reference value: 36%); format: functional; conditions: HL-60
[14] = system: MCF7; assay: Growth inhibition of human MCF7 cells at 50 uM after 72 hrs by MTT assay; format: functional; conditions: MCF7, 72 h, read-out: GI
[15] = system: HL-60; assay: Reduction in mitochondrial membrane potential in human HL60 cells at 5 uM after 24 hrs by Rh-123-staining based flow cytometry (reference value: 7%); format: functional; set-up: scale not given: the % may be the effect or the level left
[16] = Growth inhibition of human HL60 cells at 30 uM after 72 hrs by MTT assay; format: functional; conditions: HL-60, 72 h, read-out: GI
[17] = Growth inhibition of human MIAPaCa2 cells at 30 uM after 72 hrs by MTT assay; format: functional; conditions: MIA PaCa-2, 72 h, read-out: GI
[18] = Growth inhibition of human HL60 cells after 72 hrs by MTT assay; format: functional, cell-based; conditions: HL-60, 72 h
[19] = Cell cycle arrest in human HL60 cells assessed as accumulation at G2 phase at 5 uM after 24 hrs by propidium iodide-staining based flow cytometry (reference value: 1%); format: functional; conditions: HL-60
[20] = Cell cycle arrest in human HL60 cells assessed as accumulation at S phase at 20 uM after 24 hrs by propidium iodide-staining based flow cytometry (reference value: […]); format: functional; conditions: HL-60
[21] = system: HL-60; assay: Reduction in mitochondrial membrane potential in human HL60 cells at 15 uM after 24 hrs by Rh-123-staining based flow cytometry (reference value: 7%); format: functional; set-up: scale not given: the % may be the effect or the level left
[22] = Cell cycle arrest in human HL60 cells assessed as accumulation at G1 phase at 15 uM after 24 hrs by propidium iodide-staining based flow cytometry (reference value: 36%); format: functional; conditions: HL-60
[23] = system: SK-N-SH; assay: Growth inhibition of human SK-N-SH cells at 30 uM after 72 hrs by MTT assay; format: functional; conditions: read-out: GI
[24] = Growth inhibition of human HL60 cells after 24 hrs by MTT assay; format: functional, cell-based; conditions: HL-60, 24 h
[25] = Cell cycle arrest in human HL60 cells assessed as accumulation at G1 phase at 10 uM after 24 hrs by propidium iodide-staining based flow cytometry (reference value: 36%); format: functional; conditions: HL-60
[26] = system: HepG2; assay: Growth inhibition of human HepG2 cells at 30 uM after 72 hrs by MTT assay; format: functional; conditions: HepG2, 72 h, read-out: GI
[27] = Cell cycle arrest in human HL60 cells assessed as accumulation at S phase at 10 uM after 24 hrs by propidium iodide-staining based flow cytometry (reference value: 63%); format: functional; conditions: HL-60
[28] = Cell cycle arrest in human HL60 cells assessed as apoptotic cells at 5 uM after 24 hrs by propidium iodide-staining based flow cytometry (reference value: 3%); format: functional; conditions: HL-60
[29] = system: HL-60; assay: Induction of apoptosis in human HL60 cells assessed as effect on morphology at 5 to 20 uM after 24 hrs by phase-contrast microscopy; format: functional, cell-based
[30] = Cell cycle arrest in human HL60 cells assessed as accumulation at G2 phase at 10 uM after 24 hrs by propidium iodide-staining based flow cytometry (reference value: 1%); format: functional; conditions: HL-60
[31] = Growth inhibition of human MIAPaCa2 cells after 72 hrs by MTT assay; format: functional, cell-based; conditions: MIA PaCa-2, 72 h
[32] = Cell cycle arrest in human HL60 cells assessed as accumulation at S phase at 15 uM after 24 hrs by propidium iodide-staining based flow cytometry (reference value: 63%); format: functional; conditions: HL-60
[33] = system: HL-60; assay: Induction of apoptosis in human HL60 cells assessed as apoptotic bodies formation after 24 hrs by Hoechst 33342-staining based fluorescence microscopy; format: functional, cell-based
[34] = Cell cycle arrest in human HL60 cells assessed as accumulation at G1 phase at 5 uM after 24 hrs by propidium iodide-staining based flow cytometry (reference value: 36%); format: functional; conditions: HL-60
[35] = Cell cycle arrest in human HL60 cells assessed as accumulation at G2 phase at 15 uM after 24 hrs by propidium iodide-staining based flow cytometry (reference value: […]); format: functional; conditions: HL-60
[36] = Growth inhibition of human HL60 cells at 50 uM after 72 hrs by MTT assay; format: functional; conditions: HL-60, 72 h, read-out: GI
[37] = system: HL-60; assay: Reduction in mitochondrial membrane potential in human HL60 cells at 20 uM after 24 hrs by Rh-123-staining based flow cytometry (reference value: 7%); format: functional; set-up: scale not given: the % may be the effect or the level left
[38] = system: HepG2; assay: Growth inhibition of human HepG2 cells after 72 hrs by MTT assay; format: functional, cell-based; conditions: HepG2, 72 h
[39] = system: HL-60; assay: Induction of apoptosis in human HL60 cells assessed as apoptotic bodies formation at 5 to 20 uM after 24 hrs by Hoechst 33342-staining based fluorescence microscopy; format: functional, cell-based

Row | Structure (SMILES) | Activity [1] [%] | IC50 [2] [µM] | IC50 [3] [µM] | Activity [4] [%] | inhibition of growth at 50 µM [5] [%] | Activity [6] [%] | Activity [7] [%] | inhibition of growth at 50 µM [10] [%] | inhibition of growth at 50 µM [11] [%] | inhibition of growth at 30 µM [12] [%] | inhibition of growth at 50 µM [14] [%] | inhibition of growth at 30 µM [16] [%] | inhibition of growth at 30 µM [17] [%] | IC50 [18] [µM] | inhibition of growth at 30 µM [23] [%] | IC50 [24] [µM] | inhibition of growth at 30 µM [26] [%] | IC50 [31] [µM] | inhibition of growth at 50 µM [36] [%] | IC50 [38] [µM] | further results
1 | C=CCc1cc(O)c(O)c(CN2CCN(c3ccccc3O)CC2)c1 | 44 | 9 | 11 | 5 | 89.9 | 89 | 12 | 82.8 | 79.5 | 77.7 | 79.7 | 90.3 | 88.7 | 1 | 69.2 | 10 | 72.8 | 3 | 93.5 | 16 | Activity [8]: 52%; Activity [9]: 52%; Activity [13]: 51%; Activity [15]: 38%; Activity [19]: 1%; Activity [20]: 44%; Activity [21]: 59%; Activity [22]: 21%; Activity [25]: 41%; Activity [27]: 52%; Activity [28]: 7%; Activity [29]: Active; Activity [30]: 7%; Activity [32]: 78%; Activity [33]: Dose-dependent effect; Activity [34]: 47%; Activity [35]: 1%; Activity [37]: 71%
2 | C=CCc1cc(O)c(O)c(CN2CCNCC2)c1 | 44 | 12 | 14 | 4 | 85.6 | 88 | 11 | 73 | 69.9 | 69.2 | 74.2 | 92.5 | 82.8 | 2 | 65.3 | 12 | 64.2 | 4 | 94.4 | 20 | Activity [8]: 27%; Activity [9]: 57%; Activity [13]: 52%; Activity [15]: 38%; Activity [19]: 2%; Activity [20]: 44%; Activity [21]: 45%; Activity [22]: 50%; Activity [25]: 59%; Activity [27]: 37%; Activity [28]: 8%; Activity [29]: Active; Activity [30]: 4%; Activity [32]: 39%; Activity [33]: Dose-dependent effect; Activity [34]: 41%; Activity [35]: 11%; Activity [37]: 46%
3 | C=CCc1ccc(O)c(O)c1 [HYDROXYCHAVICOL] | 22 | > 30 | > 30 | 6 | 42.8 | 10 | 9 | 29.3 | 71.7 | 36.9 | 44.1 | 88.8 | 41.7 | 3 | 34.2 | 50 | 27.2 | > 30 | 92.4 | > 30 | Activity [8]: 10%; Activity [9]: 57%; Activity [13]: 27%; Activity [15]: 17%; Activity [19]: 8%; Activity [20]: 67%; Activity [21]: 26%; Activity [22]: 17%; Activity [25]: 37%; Activity [27]: 54%; Activity [28]: 5%; Activity [29]: Active; Activity [30]: 9%; Activity [32]: 61%; Activity [34]: 35%; Activity [35]: 22%; Activity [39]: Active; Activity [37]: 42%
4 | C=CCc1cc(O)c(O)c(CN2CCC(Cc3ccccc3)CC2)c1 | – | 16 | 11 | – | 90.9 | – | – | 84 | 83.4 | 70.9 | 86.3 | 90.6 | 88.9 | 3 | 78.8 | 15 | 70.2 | 4 | 94.4 | 22 | –

— ChEMBL document CHEMBL3407403, “Synthetic modification of hydroxychavicol by Mannich reaction and alkyne-azide cycloaddition derivatives depicting cytotoxic potential” (Eur J Med Chem, 2015)
